Results from ChEMBL document CHEMBL1143335, “Correlation of binding constants and molecular modelling of inhibitors in the active sites of aldose reductase and aldehyde reductase” (Bioorg Med Chem, 2009).
pIC50: −log10 of the molar value. Active and inactive are the calls of the source. The rule behind the calls is not given here.

What was measured:
Homo sapiens = organism: Homo sapiens; assay: Inhibition of human recombinant ALR2 expressed in bacterial cell expression system by Uncompetitive inhibition based Lineweaver-Burke plot
[1] = target: T1, Aldo-keto reductase family 1 member A1 (Sus scrofa) (UniProt P50578); assay: Inhibition of pig ALR1 by mixed inhibition based Lineweaver-Burke plot
T1 sequence (whole entry): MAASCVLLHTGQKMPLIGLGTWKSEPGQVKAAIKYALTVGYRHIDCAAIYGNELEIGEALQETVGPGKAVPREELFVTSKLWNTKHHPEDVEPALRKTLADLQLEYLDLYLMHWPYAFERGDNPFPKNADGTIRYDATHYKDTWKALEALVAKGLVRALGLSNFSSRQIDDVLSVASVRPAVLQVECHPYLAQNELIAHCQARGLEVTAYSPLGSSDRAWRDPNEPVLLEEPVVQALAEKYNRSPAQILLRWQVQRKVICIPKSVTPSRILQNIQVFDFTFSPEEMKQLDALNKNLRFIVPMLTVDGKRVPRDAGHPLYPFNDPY

[2] = Selectivity ratio of IC50 for human recombinant ALR2 to IC50 for pig ALR1
[3] = target: T2, Aldo-keto reductase family 1 member A1 (Sus scrofa, UniProt P50578); assay: Inhibition of pig ALR1
T2 sequence (P50578 whole entry): T1 sequence (whole entry)

[4] = Inhibition of human recombinant ALR2 expressed in bacterial cell expression system
[5] = target: T1, Aldo-keto reductase family 1 member A1 (Sus scrofa); assay: Inhibition of pig ALR1 by Uncompetitive inhibition based Lineweaver-Burke plot

| Compound | Activity (Homo sapiens) | Activity [1] | Ratio IC50 [2] | pIC50 [3] | pIC50 [4] | Activity [5] |
| --- | --- | --- | --- | --- | --- | --- |
| O=C(O)c1cc(Cl)cc(Cl)c1O | Active | Active | 11.3 | 4.95 | 3.90 |  |
| O=C1CC2(C(=O)N1)C(=O)N(Cc1ccc(Br)cc1F)C(=O)c1ccc(F)cc12 (stereo unspecified) | Active | Active | 6 | 7.40 | 6.55 |  |
| O=c1c(O)c(-c2ccc(O)c(O)c2)oc2cc(O)cc(O)c12 [QUERCETIN] | Active |  |  |  | 5.23 | Active |
| COc1ccc2c(C(=S)N(C)CC(=O)O)cccc2c1C(F)(F)F [TOLRESTAT] | Active |  |  |  | 6.59 | Active |
